Assay results taken from patent US20110224221A1, “HEMATOPOIETIC PROTECTION AGAINST IONIZING RADIATION USING SELECTIVE CYCLIN-DEPENDENT KINASE 4/6 INHIBITORS” (priority 2008, published 2011).
“Also recorded” adds a separate entry of the source.

Legend:
[1] = test system: human melanoma cell line WM2664; assay: Cell cycle analysis (BrdU incorporation in vitro), WM2664; assay type: cell-based; conditions: for cell cycle effect: WM2664, 24 hours exposure
Excerpt: (§1) FIG. 3A is a set of graphs showing the dose-response curves for cycle analysis in both cyclin-dependent kinase 4/6 (CKD4/6)-dependent cells (human telomerized human diploid fibroblasts (tHDFs, left-hand column of graphs) and a CDK4/6-dependent human melanoma cell line (WM2664, middle column of graphs)) and in CDK4/6-independent cells (a human retinoblastoma tumor suppressor protein (RB)-null melanoma cell line (A2058), right-hand column of graphs). […] The percentage of cells in the G1 phase is indicated by the data shown in the open triangles, while the percentage of cells in the S phase is shown by the data in the shaded circles and the percentage of cells in the G2/M phase is indicated by the data in the double “x”s.
FIG. 8 is a set of representative cell cycle dot-plots for cyclin-dependent kinase 4/6 (CDK4/6)-dependent (WM2664) human melanoma cells (top two rows) and CDK4/6-independent (A2058) human melanoma cells (bottom two rows) that had been treated with dimethyl sulfoxide (DMSO) as a control or with 300 nM, 1 μM, 3 μM, 10 μM or 30 μM of trans-4-[[6-ethylamino)-2-[[2-phenylmethyl)-1H-indol-5-yl]amino]-4-pyrimidinyl]amino]]-cyclohexanol (CINK4).
(§2) Cell Lines: KPTR1, KPTR4. and KPTR5 were derived from tumor-bearing TyrRAS+Ink4a/Arf−/− by standard procedures and cultured in RPMI+10% fetal bovine serum (FBS). Telomerized HDFs (tHDFs, also known as HS68) were cultured in DMEM+10% FBS with penicillin and streptomycin. The same conditions were used for A2058 and WM2664, human melanoma cell lines with known RB-pathway mutations: A2058 is RB-null, whereas WM2664 lacks p16^INK4a/Arf. See Shields, et al., Cancer Res., 67, 1502-1512 (2007). Cells were irradiated for indicated doses in a Rad Source Inc. (Alpharetta, Ga., United States of America) RS-2000 Biological Irradiator at 160 kV, 25.0 mA, at distance setting 1, with a dose rate of 103 rads/min.
(§3) BrdU Incorporation in vitro: Cells were plated and allowed to adhere overnight or at least 6 hours prior to adding CDK4/6 inhibitor at the indicated concentrations. Cells were grown for 24 hours in the presence of CDK4/6 inhibitor. 15 minutes prior to cell harvesting, 5-Bromo-2-deoxyuridine (BrdU) was added to the media at a final concentration of 10 μM. The cells were then washed, trypsinized, pelleted, fixed, permeabilized, stained, and measured on a flow cytometer as described in manufacturer directions for the BrdU Kit (BD Biosciences Pharmingen, San Diego, Calif., United States of America).
(§4) The proliferation of seven RB-deficient human small cell lung cancer lines was also resistant to the selective CDK4/6 inhibitors.

tHDF (HS68) cells = assay: Clonogenic assay after IR, tHDF (HS68); assay type: cell-based, human; conditions: PD0332991 100 nM, 2BrIC 2 μM, CINK4 6 μM, IR 0-9 Gy
Experimental: FIG. 6A is a set of micrograph images of crystal violet stained cell cultures of cyclin-dependent kinase 4/6 (CDK4/6)-dependent cells (HS68) plated at different cell/well ratios and treated with either dimethyl sulfoxide (DMSO) as a negative control or with the selective CDK4/6 inhibitor 2-bromo-12,13-dihydro-5H-indolo[2,3-a]pyrrolo[3,4]carbazole-5,6-dione (2BrIC) at 2 μM for 24 hours prior to exposure to ionizing radiation at 0, 1.5, 3, 6, or 9 gray (Gy), as indicated.
Data plotted is the area/cell ratio of PD0332991 treated cells to dimethyl sulfoxide (DMSO) treated cells. Error bars show standard error of the mean.
FIG. 9A is a set of micrograph images of cell cultures of cyclin-dependent kinase 4/6 (CDK4/6)-dependent cells (HS68) plated at different cell/well ratios and pretreated with either dimethyl sulfoxide (DMSO) as a control or with the nonselective CDK4/6 inhibitor trans-4-[[6-ethylamino)-2-[[1-phenylmethyl)-1H-indol-5-yl]amino]-4-pyrimidinyl]amino]]-cyclohexanol (CINK4) at 6 μM for 24 hours prior to exposure to ionizing radiation at 0, 1.5, 3, 6, or 9 gray (Gy), as indicated. The plates were stained with crystal violet to visualize cell colonies.
Clonogenic Assay: The clonogenic assay was performed as previously described (see Franken et al., Nature protocols, 1, 2315-1319 (2006)) with cells plated in a six-well plate at least 6 hours prior to treatment with CDK inhibitor for 24 hours, with 6 Gy IR occurring 12 hours after initiation of CDK inhibitor exposure. Cells were grown for 16 days, washed, fixed, and stained with crystal violet. Plates were then imaged using an Odyssey infrared scanner (Li-Cor Biosciences, Lincoln, Nebr., United States of America) and quantified using the accompanying software.

[2] = test system: RB-null melanoma line A2058; assay: Cell cycle analysis (BrdU incorporation in vitro), A2058; assay type: cell-based, human; conditions: A2058, concentrations between 300 nM and 30 μM
Excerpt: FIG. 3A is a set of graphs showing the dose-response curves for cycle analysis in both cyclin-dependent kinase 4/6 (CKD4/6)-dependent cells (human telomerized human diploid fibroblasts (tHDFs, left-hand column of graphs) and a CDK4/6-dependent human melanoma cell line (WM2664, middle column of graphs)) and in CDK4/6-independent cells (a human retinoblastoma tumor suppressor protein (RB)-null melanoma cell line (A2058), right-hand column of graphs). […] The percentage of cells in the G1 phase is indicated by the data shown in the open triangles, while the percentage of cells in the S phase is shown by the data in the shaded circles and the percentage of cells in the G2/M phase is indicated by the data in the double “x”s. […]
BrdU Incorporation in vitro: Cells were plated and allowed to adhere overnight or at least 6 hours prior to adding CDK4/6 inhibitor at the indicated concentrations. […] The cells were then washed, trypsinized, pelleted, fixed, permeabilized, stained, and measured on a flow cytometer as described in manufacturer directions for the BrdU Kit (BD Biosciences Pharmingen, San Diego, Calif., United States of America). […]

[3] = test system: telomerized human diploid fibroblasts (tHDF); assay: Cell cycle analysis (BrdU incorporation in vitro), tHDF; assay type: cell-based; conditions: 24 hours exposure
Excerpt: as §1, §2, §3, §4

| Structure (SMILES) | substantially pure G1 arrest ([1]; WM2664, concentrations between 300 nM and 30 μM) | clonogenic cell survival after IR (area/cell ratio relative to DMSO) (tHDF (HS68) cells) | substantially pure G1 arrest [2] | cell cycle effect [1] | cell cycle effect [3] |
| --- | --- | --- | --- | --- | --- |
| CCNc1cc(N[C@H]2CC[C@H](O)CC2)nc(Nc2ccc3c(ccn3Cc3ccccc3)c2)n1 [CINK4] | did not induce a substantially pure (i.e. “clean”) G1 arrest | failed to enhance cell survival; also recorded: lack of enhanced cell survival | did not induce a substantially pure (i.e. “clean”) G1 arrest | – | – |
| COc1ccc(F)c(F)c1C(=O)c1cnc(NC2CCN(S(C)(=O)=O)CC2)nc1N [Compound 7] | – | – | – | G2/M block, intra-S arrest, or cell death (sub-GO) | G2/M block, intra-S arrest, or cell death (sub-GO) |
| CN1CC[C@H](c2c(O)cc(O)c3c(=O)cc(-c4ccccc4Cl)oc23)[C@H](O)C1 [flavopiridol] | – | – | – | G2/M block, intra-S arrest, or cell death (sub-GO) | G2/M block, intra-S arrest, or cell death (sub-GO) |
| CC[C@H](CO)Nc1nc(NCc2ccccc2)c2ncn(C(C)C)c2n1 [roscovitine, Roscovitine] | – | – | – | G2/M block, intra-S arrest, or cell death (sub-GO) | G2/M block, intra-S arrest, or cell death (sub-GO) |
